Laboratory results: patent US10716771B2, “Pharmaceutical composition for preventing or treating immune diseases or inflammatory diseases, containing biguanide derivative compound as active ingredient” (THE CATHOLIC UNIVERSITY OF KOREA INDUSTRY-ACADEMIC …, priority 2013, dated 2020)

How the values were obtained:
[1] = Cytotoxicity (MTT) in rheumatoid arthritis disease model with metabolic syndrome; format: cell-based
Procedure: (§1) In order to examine cytotoxicity of the biguanide derivative compound of the present invention, an MTT assay was performed. Cells were isolated from the spleen in a normal mouse group and the isolated cells were incubated for 3 days in the concentration of 0.5 μg/ml of anti-CD3 or 100 ng/ml of LPS 100, and metformin, SD-196, SD-216 or SD-217 was treated for each concentration and incubated for 3 days.
(§2) Further, the incubated cells were analyzed by flow cytometry using anti-CD4-percp and anti-IL-17-Pe fluorescent antibodies, and as a result, it was verified that SD-196, 216 and 217 suppressed the activity of Th17 and simultaneously activated the expression of the regulatory T cells (Treg) (see FIG. 13).

[2] = test system: cells isolated from the spleen; test: Cytotoxicity MTT assay, Example 8-1 (rheumatoid arthritis evaluation); format: cell-based; settings: mouse spleen cells, anti-CD3 0.5 μg/ml or LPS 100 ng/ml, 3 days
Procedure: as §1, with “In order to evaluate an arthritis therapeutic effect of the biguanide derivative compound of the present invention, in a rheumatoid arthritis animal model, cytotoxicity, generation of autoantibody, expression of inflammatory cytokines and regulatory T cells (Treg), and osteoclast differentiation were measured. Like Examples, metformin was used as a control group. In” for “In”

[3] = test system: IgG; test: IgG (autoantibody) ELISA, Example 8-2; format: cell-based, mouse; settings: incubated supernatant, compared with metformin
Procedure: In order to evaluate an arthritis therapeutic effect of the biguanide derivative compound of the present invention, in a rheumatoid arthritis animal model, cytotoxicity, generation of autoantibody, expression of inflammatory cytokines and regulatory T cells (Treg), and osteoclast differentiation were measured. Like Examples, metformin was used as a control group.
(§3) In order to examine an effect of suppressing the generation of autoantibody of the biguanide derivative compound of the present invention, the incubated supernatant was collected and the IgG expression degree was examined by using an ELISA. A monoclonal anti-IgG was reacted at 4° C. overnight in a 96-well plate and then a non-specific binding was blocked by a blocking solution. A mouse control serum was continuously diluted by 1/2 to be used as a standard, added with the cell-incubated supernatant, and reacted at room temperature for 2 hrs. Thereafter, HRP-anti-IgG was reacted at room temperature for 2 hrs, washed four times after reaction, added with the diluted HRP-conjugate, and reacted at room temperature for 2 hrs.

[4] = test system: Th17; test: Th17 activity by flow cytometry in rheumatoid arthritis disease model with metabolic syndrome; format: cell-based; settings: flow cytometry anti-CD4, anti-IL-17
Procedure: as §2

[5] = test system: IgG; test: IgG generation in lupus animal model; format: cell-based; settings: compared with metformin
Procedure: as §3
(§4) In order to evaluate a lupus therapeutic effect of the biguanide derivative compound of the present invention, in a lupus animal model, cytotoxicity, autoantibody generation, generation of inflammatory cytokines, and Th17 regulation were measured by the same method as Example 8.

[6] = test system: TNF-α; test: TNF-α sandwich ELISA, Example 8-3; format: cell-based, mouse; settings: incubated supernatant
Procedure: (§5) In order to evaluate an arthritis therapeutic effect of the biguanide derivative compound of the present invention, in a rheumatoid arthritis animal model, cytotoxicity, generation of autoantibody, expression of inflammatory cytokines and regulatory T cells (Treg), and osteoclast differentiation were measured. Like Examples, metformin was used as a control group. In order to evaluate an effect of suppressing the expression of the inflammatory cytokine of the biguanide derivative compound of the present invention, the incubated supernatant was collected and the expression degrees of IL-17 and TNF-α of a mouse were examined by using a sandwich ELISA. […] of a monoclonal anti-IL-17 or anti-TNF-α was reacted in a 96-well plate at 4° C. overnight and then a non-specific binding was blocked by a blocking solution (1% BSA/PBST) after the reaction. An IL-17 or TNF-α recombinant was continuously diluted by 1/2 to be used as a standard, added with the cell-incubated supernatant, and reacted at room temperature for 2 hrs. Thereafter, biotinylated anti-IL-17 or anti-TNF-α was added and reacted at room temperature for 2 hrs, washed four times after the reaction, diluted with a diluted ExtraAvidin-alkaline phosphatase conjugate, and reacted at room temperature for 2 hrs. After the reaction, a PNPP/DEA was added and colored, and absorbance was measured at a wavelength of 405 nm.

[7] = test system: osteoclast; test: Osteoclast differentiation, TRAP staining; format: cell-based, mouse; settings: bone marrow of arthritis animal model, MCSF 10 ng/ml and RANKL 50 ng/ml
Procedure: In order to verify whether the biguanide derivative compound of the present invention suppresses the osteoclast differentiation, while a bone marrow extracted from a leg in an arthritis animal model was treated with MCSF (10 ng/ml) and RANKL (50 ng/ml) to differentiate the osteoclast, metformin, SD-196, SD-216, and SD-217 were treated, respectively, and the differentiation degrees of the osteoclast were evaluated. The evaluation was performed by using TRAP straining.

[8] = test system: regulatory T cells (Treg); test: Regulatory T cell (Treg) expression in rheumatoid arthritis disease model with metabolic syndrome; format: cell-based
Procedure: Further, in order to examine whether the biguanide derivative compound of the present invention activates the expression of regulatory T cells (Treg), the incubated cells were flow-cytometry by using anti-CD4-percp, anti-CD25-APC, and anti Foxp3-Pe fluorescent antibodies (ab), and as a result, it was verified that SD-196, 216 and 217 activated the Foxp3+ Treg cells (see FIG. 10).
as §2

[9] = test system: IL-17; test: IL-17 expression in lupus animal model; format: cell-based
Procedure: as §5, with “In” for “In order to evaluate an arthritis therapeutic effect of the biguanide derivative compound of the present invention, in a rheumatoid arthritis animal model, cytotoxicity, generation of autoantibody, expression of inflammatory cytokines and regulatory T cells (Treg), and osteoclast differentiation were measured. Like Examples, metformin was used as a control group. In”
as §4

For `CC(C)NC(=N)NC(=N)N` [SD-000196, 1-isopropylbiguanide], which cytotoxicity [1] is on record?
The cytotoxicity was “did not have the cytotoxicity”.

And the “cytotoxicity (MTT assay)” value [2]?
Its value is “no cytotoxicity”.

And the “expression of IgG” value [3]?
Its value is “significantly suppressed”.

And the “activity of Th17” value [4]?
The value was “suppressed”.

And the “expression of IgG” value [5]?
The value was “significantly suppressed”.

And the “TNF-α inflammatory cytokine expression” value [6]?
The value was “significantly suppressed”.

What about the “differentiation of the osteoclast” value [7] of the same compound?
The value was “significantly suppress”.

What about the “expression of the regulatory T cells (Treg)” value [8] of the same compound?
The value was “activated”.

And the “expression of IL-17” value [9]?
Its value is “suppressed”.

Which results are given for `NC(N)=N/C(N)=N/c1cccc(F)c1` [SD-000216, 1-(3-fluorophenyl)biguanide]?
cytotoxicity [1]: did not have the cytotoxicity; cytotoxicity (MTT assay) [2]: no cytotoxicity; expression of IgG [3]: significantly suppressed; activity of Th17 [4]: suppressed; expression of IgG [5]: significantly suppressed; TNF-α inflammatory cytokine expression [6]: significantly suppressed; differentiation of the osteoclast [7]: significantly suppress; expression of the regulatory T cells (Treg) [8]: activated; expression of IL-17 [9]: suppressed

Which cytotoxicity [1] does the source give for `N=C(N)NC(=N)Nc1ccc(F)cc1F` [SD-000217, 1-(2,4-difluorophenyl)biguanide] here?
The cytotoxicity was “did not have the cytotoxicity”.

What about the “cytotoxicity (MTT assay)” value [2] of the same compound?
Its value is “no cytotoxicity”.

What about the “expression of IgG” value [3] of the same compound?
The value was “significantly suppressed”.

And the “activity of Th17” value [4]?
The value was “suppressed”.

What about the “expression of IgG” value [5] of the same compound?
The value was “significantly suppressed”.

And the “TNF-α inflammatory cytokine expression” value [6]?
Its value is “significantly suppressed”.

What about the “differentiation of the osteoclast” value [7] of the same compound?
The value was “significantly suppress”.

And the “expression of the regulatory T cells (Treg)” value [8]?
The value was “activated”.

What about the “expression of IL-17” value [9] of the same compound?
The value was “suppressed”.
